From ChEMBL document CHEMBL1201862, “PubChem BioAssay data set” (2004)
The source made the active and inactive calls. Cut-off read from the data, not from the text of the source, for most assays here: actives have a measured EC50 and inactives only a lower limit.

Assays:
[1] = growth suppression of PTEN-null colon cells, dose response, cell-based, HCT116 PTEN knockout (AID 1047); type: functional;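 note: HCT116 colon tumor cells with PTEN knocked out; cells exposed to compound for 60 hours before readout; potency for loss of cell viability measured by luminescence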
[2] = growth suppression of beta-catenin-knockout colon cells, dose response, cell-based, HCT116, human colon tumor (AID 1045); type: functional;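 note: HCT116 colon tumor cells with beta catenin knocked out; cells exposed to compound for 60 hours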
[3] = biological target: T1, High affinity choline transporter 1 (Homo sapiens, UniProt Q9GZV3); test: CHT inhibitors, dose response, cell-based, 5-point CRC, membrane potential dye (AID 504840); type: functional
T1 sequence (Q9GZV3 whole entry): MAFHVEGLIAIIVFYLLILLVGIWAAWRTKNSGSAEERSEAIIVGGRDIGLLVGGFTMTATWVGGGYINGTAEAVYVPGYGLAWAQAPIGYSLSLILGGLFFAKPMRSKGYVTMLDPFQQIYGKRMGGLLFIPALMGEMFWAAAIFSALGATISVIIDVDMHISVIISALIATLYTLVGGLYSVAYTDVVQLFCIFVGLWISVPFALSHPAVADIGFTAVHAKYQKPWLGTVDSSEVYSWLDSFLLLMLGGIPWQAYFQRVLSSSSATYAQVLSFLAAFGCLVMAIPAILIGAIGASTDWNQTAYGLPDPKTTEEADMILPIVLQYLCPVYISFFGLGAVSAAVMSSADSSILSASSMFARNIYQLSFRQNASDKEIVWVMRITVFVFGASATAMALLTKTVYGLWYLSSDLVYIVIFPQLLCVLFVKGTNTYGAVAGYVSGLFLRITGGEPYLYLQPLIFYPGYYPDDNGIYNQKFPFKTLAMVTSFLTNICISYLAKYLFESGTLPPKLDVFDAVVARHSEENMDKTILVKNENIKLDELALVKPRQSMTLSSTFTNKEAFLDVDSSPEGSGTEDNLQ

[4] = inhibitors of firefly luciferase expression or activity, dose response, H4 neuroglioma cells, luminescence (AID 1990); type: functional, cell-based
[5] = Luminescence Cell-Based Dose Response HTS to Identify Inhibitors of 5'UTR Stem-Loop Driven Prion Protein mRNA Translation in H4 Neuroglioblastoma Cells. [Related pubchem assays: 1827 (Project Summary), 1813 (Primary HTS)]; type: functional
[6] = biological target: T2, Heat shock factor protein 1 (Mus musculus, UniProt P38532); test: inhibition of MG132-induced HSE-luciferase signal, confirmation, cell-based, NIH3T3, luminescence, dose retest (AID 2382); type: functional;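 note: NIH3T3 fibroblasts with HSF1-driven luciferase reporter stressed by proteasome inhibitor MG132; luminescence from HSF1-driven luciferase expression after 8 hours of MG132 stress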
T2 sequence (P38532 whole entry): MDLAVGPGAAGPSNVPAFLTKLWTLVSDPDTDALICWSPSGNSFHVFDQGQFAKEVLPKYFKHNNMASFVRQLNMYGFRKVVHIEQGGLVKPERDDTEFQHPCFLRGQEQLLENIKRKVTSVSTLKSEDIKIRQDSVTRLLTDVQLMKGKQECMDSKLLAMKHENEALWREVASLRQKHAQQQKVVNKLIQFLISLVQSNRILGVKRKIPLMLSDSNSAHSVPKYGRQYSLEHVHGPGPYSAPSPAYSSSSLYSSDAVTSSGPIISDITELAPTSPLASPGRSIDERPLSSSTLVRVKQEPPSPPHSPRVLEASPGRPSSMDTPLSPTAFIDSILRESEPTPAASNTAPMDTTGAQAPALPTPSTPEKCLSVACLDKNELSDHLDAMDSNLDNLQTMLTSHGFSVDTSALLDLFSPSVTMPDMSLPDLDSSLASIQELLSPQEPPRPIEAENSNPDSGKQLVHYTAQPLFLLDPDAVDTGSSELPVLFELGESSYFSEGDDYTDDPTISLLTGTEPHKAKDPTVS

[7] = inhibitors of SNCA 5'UTR-driven reporter translation, confirmation, H4 neuroglioma cells, luminescence (AID 1988); type: functional, cell-based
[8] = biological target: Luciferin 4-monooxygenase (Photinus pyralis, UniProt P08659); test: firefly luciferase enzyme inhibitors, dose response, biochemical, luminescence (AID 1891)
[9] = Luminescence Cell-Based Dose Confirmation HTS to Identify Inhibitors of Platelet Dense Granule Release. [Related pubchem assays: 1663 (Primary HTS), 1678 (Summary of Project)]; type: functional
[10] = biological target: T3, Protein skinhead-1 (Caenorhabditis elegans, UniProt P34707); type: functional
T3 sequence (P34707 whole entry): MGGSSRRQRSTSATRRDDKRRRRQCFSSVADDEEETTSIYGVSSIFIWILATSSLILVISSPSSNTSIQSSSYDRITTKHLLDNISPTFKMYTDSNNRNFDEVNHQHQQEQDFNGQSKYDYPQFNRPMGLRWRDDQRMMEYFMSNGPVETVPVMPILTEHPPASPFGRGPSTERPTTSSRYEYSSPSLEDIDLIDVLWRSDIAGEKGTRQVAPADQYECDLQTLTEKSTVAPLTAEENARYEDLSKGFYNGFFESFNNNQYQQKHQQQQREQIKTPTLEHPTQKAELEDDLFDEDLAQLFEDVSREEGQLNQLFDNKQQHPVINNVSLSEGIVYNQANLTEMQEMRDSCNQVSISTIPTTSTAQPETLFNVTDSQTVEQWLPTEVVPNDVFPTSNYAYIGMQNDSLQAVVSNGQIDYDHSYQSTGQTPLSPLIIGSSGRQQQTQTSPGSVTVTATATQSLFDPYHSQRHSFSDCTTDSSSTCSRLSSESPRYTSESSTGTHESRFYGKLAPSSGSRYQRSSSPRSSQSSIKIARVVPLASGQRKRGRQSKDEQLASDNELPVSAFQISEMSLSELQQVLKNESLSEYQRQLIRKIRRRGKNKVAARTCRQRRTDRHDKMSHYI

[11] = biological target: T4, Carboxy-terminal domain RNA polymerase II polypeptide A small phosphatase 1 (Homo sapiens, UniProt Q9GZU7); test: inhibitors of CTDSP1, concentration-response testing, biochemical assay, absorbance-based, actives from ultra-high-throughput screening (AID 540297); type: functional
T4 sequence (Q9GZU7 whole entry): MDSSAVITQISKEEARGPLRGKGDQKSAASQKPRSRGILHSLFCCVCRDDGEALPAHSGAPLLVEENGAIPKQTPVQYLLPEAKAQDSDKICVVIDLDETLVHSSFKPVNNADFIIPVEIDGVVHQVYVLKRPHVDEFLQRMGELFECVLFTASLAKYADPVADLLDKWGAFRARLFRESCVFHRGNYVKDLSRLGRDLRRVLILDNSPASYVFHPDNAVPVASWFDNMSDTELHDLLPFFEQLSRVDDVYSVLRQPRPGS

[12] = NIH-3T3 fibroblast cytotoxicity, dose response, cytotoxicity control, cell-based, fluorescence, Alamar Blue, secondary assay (AID 2327); type: functional;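 note: NIH-3T3 mouse fibroblasts cultured with fluconazole at 8 µg/mL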
[13] = C. albicans growth with fluconazole, confirmation, fluorescence, retest (AID 2467); type: functional, cell-based
[14] = Luminescence Cell-Based Dose Confirmation HTS to Identify Activators of 5'UTR Stem-Loop Driven Alpha-Synuclein mRNA Translation in H4 Neuroglioblastoma Cells. [Related pubchem assays: 1829 (Project Summary), 1814 (Primary HTS)]; type: functional
[15] = Luminescence Cell-Based Dose Response HTS to Identify Activators of Luciferase Translation or Activity in H4 […] Cells. [Related pubchem assays: 1829 (Project Summary), 1814 (Primary HTS)]; type: functional
[16] = tested on: H4; test: Luminescence Cell-Based Dose Response HTS to Identify Activators of 5'UTR Stem-Loop Driven Prion Protein mRNA Translation in H4 Neuroglioblastoma Cells. [Related pubchem assays: 1829 (Project Summary), 1814 (Primary HTS)]; type: functional; settings: Homo sapiens
[17] = Luminescence Cell-Based Dose Retest to Confirm Inhibitors of Cancer Stem Cells. [Related pubchem assays (depositor defined):AID2717, AID2721]; type: functional; settings: Homo sapiens
[18] = tested on: INS1; test: beta cell apoptosis inhibitors, cytokine rescue, dose response, luminescence, retest (AID 449756); type: functional, cell-based; settings: Rattus norvegicus;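 note: cell death triggered by IL-1 beta plus TNF-alpha plus IFN-gamma mixture; protective hits raise ATP signal compared with cytokine alone wells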
[19] = tested on: Streptococcus sp. 'group A'; test: growth inhibition of control SK(-) GAS strain, dose response, counter-screen for streptokinase expression inhibitor project, luminescence, kanamycin, BacTiterGlo, confirmation (AID 1900); type: functional, organism-based
[20] = biological target: T5, Streptokinase A (Streptococcus pyogenes serotype M1, UniProt P10520); test: S. pyogenes streptokinase expression inhibitors, potency, dose response, plasminogen activation absorbance, OD405 (AID 1914); type: functional, Streptococcus pyogenes M1 GAS;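 note: secreted streptokinase activity via plasminogen activation per viability signal from cell pellet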
T5 sequence (P10520 whole entry): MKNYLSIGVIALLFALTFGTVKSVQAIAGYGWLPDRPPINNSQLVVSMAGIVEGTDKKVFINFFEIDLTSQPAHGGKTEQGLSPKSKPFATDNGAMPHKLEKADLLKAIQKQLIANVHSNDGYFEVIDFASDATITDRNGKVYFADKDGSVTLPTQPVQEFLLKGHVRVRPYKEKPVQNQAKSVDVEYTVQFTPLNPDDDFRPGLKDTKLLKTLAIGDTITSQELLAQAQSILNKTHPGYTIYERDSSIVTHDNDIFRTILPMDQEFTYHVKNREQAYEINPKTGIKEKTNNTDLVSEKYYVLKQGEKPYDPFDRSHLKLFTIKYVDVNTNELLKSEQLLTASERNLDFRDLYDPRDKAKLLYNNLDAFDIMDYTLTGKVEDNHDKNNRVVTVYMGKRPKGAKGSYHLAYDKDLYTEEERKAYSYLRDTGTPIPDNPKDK

[21] = tested on: Streptococcus; test: Group A Streptococcus viability loss, dose response, counter-screen for streptokinase expression inhibitor project, luminescence, BacTiterGlo (AID 1915); type: functional, organism-based;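 note: potency for reduction of bacterial viability or growth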

Sequence of Luciferin 4-monooxygenase (P08659 whole entry): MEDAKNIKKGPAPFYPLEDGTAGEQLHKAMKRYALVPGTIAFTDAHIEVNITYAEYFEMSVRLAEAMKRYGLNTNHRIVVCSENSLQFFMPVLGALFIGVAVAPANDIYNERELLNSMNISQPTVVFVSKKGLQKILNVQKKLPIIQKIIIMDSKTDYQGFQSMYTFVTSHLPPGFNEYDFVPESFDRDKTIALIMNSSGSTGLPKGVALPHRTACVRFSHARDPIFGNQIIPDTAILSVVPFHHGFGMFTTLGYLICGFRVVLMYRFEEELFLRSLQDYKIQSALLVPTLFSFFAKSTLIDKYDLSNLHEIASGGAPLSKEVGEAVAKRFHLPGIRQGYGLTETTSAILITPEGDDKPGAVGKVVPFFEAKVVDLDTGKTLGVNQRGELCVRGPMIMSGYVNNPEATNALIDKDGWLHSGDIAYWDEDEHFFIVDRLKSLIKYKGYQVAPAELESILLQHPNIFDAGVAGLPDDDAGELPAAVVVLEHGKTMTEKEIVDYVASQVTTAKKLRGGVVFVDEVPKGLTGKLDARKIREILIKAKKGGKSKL

COc1cc(C(=O)Nc2ccc(Br)cc2C(=O)c2ccccc2Cl)cc(OC)c1OC
EC50 [1]: 153 µM (active)
EC50 [2]: 29 µM (active)

Cc1ccc(C)c(OCC(=O)Nc2ccc(S(=O)(=O)Nc3ccccn3)cc2)c1C
IC50 [3]: 7.2 µM (active)

Cc1sc(NC(=O)c2cc(-c3ccc(Cl)cc3)nc3ccccc23)c(C(N)=O)c1C
EC50 [1]: 17.3 µM (active)
EC50 [2]: 15.3 µM (active)

CC1CCN(CC(O)COc2ccc(OCC(O)CN3CCC(C)CC3)cc2)CC1 (configuration not stated)
IC50 [3]: 12.6 µM (active)

CCOC(=O)c1cccc(Nc2ncnc3ccccc23)c1
IC50 [3]: 14.5 µM (active)

Fc1ccc(-c2nnc(NC3=NCCCCC3)o2)cc1
EC50 [4]: 2.66 µM (active)
EC50 [5]: 0.751 µM (active)
EC50 [6]: 16 µM (active)
EC50 [7]: 1.4 µM (active)
EC50 [8]: 13.9 µM (active)
EC50 [9]: 2.88 µM (active)

CC(C)C(=O)Nc1ncc2c(n1)CC(c1cccs1)CC2=O (configuration not stated)
EC50 [8]: > 112 µM (not active)
EC50 [9]: > 112 µM (not active)

COc1cccc(NC(=O)c2cnn(-c3ccccc3)c2C)c1
EC50 [8]: 8.62 µM (active)
EC50 [9]: 20.2 µM (active)

CC1CCN(CC(=O)Nc2cccc(C(=O)Nc3cccc(C(F)(F)F)c3)c2)CC1
IC50 [3]: 12.3 µM (active)
IC50 [10]: 43.2 µM (active)

Cc1cc(C)c(C)c(S(=O)(=O)N[C@@H](C)C(=O)OCc2cc(=O)n3cc(Br)ccc3n2)c1C
IC50 [11]: 7.42 µM (active)

COc1ccc(C/C(O)=C(\C#N)c2nc3ccccc3s2)cc1
EC50 [12]: 39.5 µM (active)
EC50 [13]: 0.405 µM (active)
IC50 [3]: 0.724 µM (active)

Cc1nn(-c2ccc(F)cc2)c(Cl)c1/C=N/NC(=O)c1cccc(S(=O)(=O)N2CCCC2)c1
IC50 [11]: 10.7 µM (active)

CC1=NN(c2ccccc2)C(=O)/C1=C/c1cc2cc(C)ccc2nc1N1CCCCC1
EC50 [14]: 8.69 µM (active)
EC50 [15]: 17.1 µM (active)
EC50 [16]: > 120 µM (inconclusive)
EC50 [1]: 17.8 µM (active)
EC50 [2]: 25.2 µM (active)

O=C(N/N=C/c1ccc2c(c1)OCO2)c1ccc(COCC(F)(F)C(F)F)cc1
AC50 [17]: 1.12 µM (active)
IC50 [11]: 9.06 µM (active)

CCCn1nc(NS(=O)(=O)c2ccc(F)cc2)c2cc3ccccc3nc21
EC50 [8]: > 112 µM (not active)
EC50 [9]: > 112 µM (not active)

Cc1ccc(C)c(N2CCN(S(=O)(=O)c3ccc4c(c3)OCCO4)CC2)c1
EC50 [8]: > 112 µM (not active)
EC50 [9]: > 112 µM (not active)

O=c1c2ccccc2nc(SCc2ccncc2)n1CC1CCCO1 (configuration not stated)
IC50 [3]: 12.9 µM (active)

C/C(=N\NC(=O)C(C)n1nc(C)c([N+](=O)[O-])c1C)c1ccccc1O (configuration not stated)
AC50 [18]: 1.93 µM (active)

Cc1cccc(N2CC(C)Cn3c2nc2c3c(=O)n(CC(=O)OCc3ccccc3)c(=O)n2C)c1 (configuration not stated)
EC50 [8]: 27.8 µM (active)
EC50 [9]: > 112 µM (not active)

CCCCC1CCC(C(=O)N(CC(C)C)c2c(N)n(Cc3ccccc3)c(=O)[nH]c2=O)CC1 (configuration not stated)
AC50 [17]: 2.96 µM (active)
AC50 [18]: 5.82 µM (active)

O=C(NCCC1=CCCCC1)NC1CCCCC1
EC50 [8]: > 112 µM (not active)
EC50 [9]: > 112 µM (not active)
IC50 [10]: > 100 µM (inactive)

O=C1c2ccccc2C(O)N1CCN1CCOCC1 (configuration not stated)
EC50 [8]: > 112 µM (not active)
EC50 [9]: > 112 µM (not active)

CCn1/c(=N/C(=O)c2ccc(S(=O)(=O)N3CCOCC3)cc2)sc2cccc(OC)c21
AC50 [18]: 5.66 µM (active)

COc1ccc(Cn2c(C3CCCCC3)nc3c(c(=O)c4ccccc4n3C)c2=O)cc1
EC50 [19]: 6.03 µM (active)
EC50 [20]: > 150 µM (not active)
EC50 [21]: 6.96 µM (active)
IC50 [11]: 5.55 µM (active)

CCCc1cc2c(=O)c(-c3cscn3)c(C(=O)OCC)oc2cc1O
IC50 [3]: 13.8 µM (active)
